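Grown in 96-well plates, cells were treated for 48 hours with each compound at five concentrations. Insufficient inhibition: endpoint recorded as highest concentration tested. GI50 marks 50% less growth.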 Activity calls are given as the source filed them. Rule as the data show it: active = GI50 up to about 1.1 µM and inactive = higher. *1 amine or outer side, *2 acyl side, *3 side chain or, on linkers, in order; H or OH if unused. Where a SMILES comes first, the peptide text is derived from it. Bridges are numbered along the chain shown (N, C = ends). [ ]: non-standard residue; d: D form. The star is where a group is joined. ξ: configuration not given here. ξOrn(4,5-diOH) = O=C(C(CC(O)C(O)N[*:3])N[*:1])[*:2]; ξhTyr(βξ-OH,γξ-OH) = NC(C(=O)O)C(O)C(O)c1ccc(O)cc1; ξPro(3ξ-OH,4ξ-Me) = CC1CNC(C(=O)O)C1O; X55 = CCCCC/C=C/C/C=C\CCCCCCCC(=O)*; Hyp = O=C(O)[CH]1C[CH](O)CN1
Experiments:
Assay in all cases: NCI-60 cell line screen, 48 h
MDA-MB-231 = test system: MDA-MB-231
SK-OV-3 = test system: SK-OV-3
HOP-62 = test system: HOP-62
UO-31 = test system: UO-31
SN12C = test system: SN12C
NCI/ADR-RES = test system: NCI/ADR-RES
RPMI-8226 = test system: RPMI-8226
SNB-75 = test system: SNB-75
SK-MEL-5 = test system: SK-MEL-5
M14 = test system: M14
SNB-19 = test system: SNB-19
T47D = test system: T47D
MCF7 = test system: MCF7
A549 = test system: A549
IGROV-1 = test system: IGROV-1
UACC-257 = test system: UACC-257
KM12 = test system: KM12
SF-295 = test system: SF-295
RXF 393 = test system: RXF 393

Measured: GI50

O=C1OC(c2ccccc2)N(C(=O)c2ccccc2)C1Cc1ccc(OCc2ccccc2)cc1 (stereo not given)
inactive: MDA-MB-231 2.6 µM | SK-OV-3 > 100 µM | HOP-62 9.42 µM | UO-31 21.1 µM | SN12C > 100 µM | NCI/ADR-RES 19.9 µM | RPMI-8226 87.5 µM | SNB-75 15.7 µM | SK-MEL-5 43.8 µM | M14 > 100 µM | SNB-19 > 100 µM | T47D > 100 µM | MCF7 5.48 µM | A549 80.2 µM | IGROV-1 > 100 µM

COc1ccc(/C(C)=N/NC(=O)c2ccncc2)cc1OC
inactive: MDA-MB-231 > 10 µM | SK-OV-3 > 10 µM | HOP-62 > 10 µM | UO-31 9.08 µM | SN12C > 10 µM | NCI/ADR-RES > 10 µM | UACC-257 > 10 µM | RPMI-8226 > 10 µM | SNB-75 > 10 µM | SK-MEL-5 > 10 µM | M14 > 10 µM | KM12 > 10 µM | T47D > 10 µM | MCF7 > 10 µM | A549 > 10 µM | IGROV-1 > 10 µM

c1ccc2c(c1)SCCCS2
inactive: MDA-MB-231 > 100 µM | SK-OV-3 > 100 µM | HOP-62 > 100 µM | UO-31 > 100 µM | SF-295 > 100 µM | SN12C > 100 µM | NCI/ADR-RES > 100 µM | UACC-257 > 100 µM | SNB-75 > 100 µM | SK-MEL-5 > 100 µM | M14 > 100 µM | SNB-19 > 100 µM | KM12 > 100 µM | T47D > 100 µM | MCF7 > 100 µM | A549 > 100 µM | IGROV-1 > 100 µM

Cc1nnc([C@@]2(C)CC[C@H]3[C@@H](CC=C4C[C@@H](O)CC[C@@]43C)[C@@H]2CC#N)o1
inactive: MDA-MB-231 > 100 µM | RXF 393 > 100 µM | SK-OV-3 > 100 µM | HOP-62 > 100 µM | UO-31 > 100 µM | SF-295 > 100 µM | SN12C > 100 µM | NCI/ADR-RES > 100 µM | UACC-257 97.5 µM | RPMI-8226 97.3 µM | SNB-75 27 µM | SK-MEL-5 > 100 µM | M14 > 100 µM | SNB-19 > 100 µM | KM12 > 100 µM | MCF7 > 100 µM | A549 > 100 µM

O=c1cc(NNc2cccc(F)c2)[nH]c(=S)[nH]1
inactive: MDA-MB-231 > 100 µM | HOP-62 > 100 µM | UO-31 > 100 µM | SF-295 > 100 µM | SN12C > 100 µM | NCI/ADR-RES > 100 µM | UACC-257 > 100 µM | RPMI-8226 42.4 µM | SK-MEL-5 > 100 µM | M14 > 100 µM | SNB-19 > 100 µM | KM12 96.8 µM | MCF7 61.5 µM | A549 > 100 µM | IGROV-1 > 100 µM

CCCCCC[C@H]1CC(=O)C2CCCC[C@@]23CC[C@H](CCl)N13.CCCCCC[C@H]1CC(=O)C2CCCC[C@@]23C[C@H](Cl)CN13 (stereo not given in full)
inactive: MDA-MB-231 84.5 µM | SK-OV-3 > 100 µM | HOP-62 91.6 µM | UO-31 24.3 µM | SF-295 51.2 µM | SN12C 82 µM | UACC-257 43 µM | RPMI-8226 20.7 µM | SNB-75 27.8 µM | SK-MEL-5 17.2 µM | M14 29.2 µM | SNB-19 37.9 µM | KM12 49.8 µM | MCF7 40.1 µM | A549 37 µM | IGROV-1 > 100 µM

COC(=O)CCC1=CCC2(SC)C(=O)Nc3cccc1c32 (stereo not given)
inactive: MDA-MB-231 > 100 µM | SK-OV-3 > 100 µM | HOP-62 > 100 µM | UO-31 > 100 µM | SF-295 > 100 µM | SN12C > 100 µM | NCI/ADR-RES > 100 µM | UACC-257 > 100 µM | RPMI-8226 > 100 µM | SNB-75 > 100 µM | SK-MEL-5 > 100 µM | M14 > 100 µM | SNB-19 > 100 µM | KM12 > 100 µM | T47D 4.7 µM | MCF7 > 100 µM | A549 > 100 µM | IGROV-1 > 100 µM

CC(NC(=O)C(N)CC(=O)O)C(=O)OC12CC3CC(CC(C3)C1)C2 (stereo not given)
inactive: MDA-MB-231 > 100 µM | RXF 393 > 100 µM | SK-OV-3 > 100 µM | UO-31 > 100 µM | SN12C > 100 µM | NCI/ADR-RES > 100 µM | UACC-257 > 100 µM | RPMI-8226 > 100 µM | SNB-75 > 100 µM | SK-MEL-5 > 100 µM | M14 > 100 µM | SNB-19 > 100 µM | KM12 > 100 µM | MCF7 > 100 µM | A549 > 100 µM | IGROV-1 > 100 µM

NC(N)=NCc1ccc2c(c1)OCO2
inactive: MDA-MB-231 95.3 µM | RXF 393 55.3 µM | SK-OV-3 > 100 µM | HOP-62 > 100 µM | UO-31 > 100 µM | SF-295 67 µM | NCI/ADR-RES > 100 µM | RPMI-8226 74 µM | SNB-75 > 100 µM | SK-MEL-5 24 µM | M14 > 100 µM | SNB-19 > 100 µM | KM12 50 µM | T47D > 100 µM | A549 > 100 µM | IGROV-1 > 100 µM

N#Cc1c(-c2ccccc2)[nH]c2ccccc2c1=O
inactive: MDA-MB-231 26.2 µM | RXF 393 30.7 µM | SK-OV-3 26.2 µM | HOP-62 27.7 µM | UO-31 > 10 µM | SF-295 21.8 µM | SN12C 95.7 µM | NCI/ADR-RES > 100 µM | UACC-257 > 100 µM | SNB-75 15.1 µM | SK-MEL-5 66.7 µM | M14 > 100 µM | SNB-19 22.8 µM | KM12 47.9 µM | MCF7 67 µM | A549 9.59 µM | IGROV-1 23.9 µM

COc1ccc(CC2c3cc(OC)c(OC)cc3CC[N+]2(C)C)cc1OC (stereo not given)
inactive: MDA-MB-231 > 100 µM | SK-OV-3 > 100 µM | UO-31 > 100 µM | SF-295 > 100 µM | SN12C > 100 µM | NCI/ADR-RES > 100 µM | UACC-257 > 100 µM | RPMI-8226 > 100 µM | SNB-75 > 100 µM | SK-MEL-5 > 100 µM | SNB-19 > 100 µM | KM12 > 100 µM | T47D > 100 µM | MCF7 > 100 µM | A549 > 100 µM | IGROV-1 > 100 µM

CCCCC/C=C/C/C=C\CCCCCCCC(=O)NC1CC(O)C(O)NC(=O)C2C(O)C(C)CN2C(=O)C(C(C)O)NC(=O)C(C(O)C(O)c2ccc(O)cc2)NC(=O)C2CC(O)CN2C(=O)C(C(C)O)NC1=O (stereo not drawn) (X55-[ξOrn(4,5-diOH)]T[Hyp][ξhTyr(βξ-OH,γξ-OH)]T[ξPro(3ξ-OH,4ξ-Me)]; lactam 1-C; configuration not given here)
inactive: MDA-MB-231 > 100 µM | HOP-62 > 100 µM | UO-31 > 100 µM | SF-295 > 100 µM | SN12C > 100 µM | NCI/ADR-RES > 100 µM | UACC-257 > 100 µM | RPMI-8226 > 100 µM | SNB-75 > 100 µM | SK-MEL-5 > 100 µM | M14 > 100 µM | SNB-19 > 100 µM | KM12 > 100 µM | T47D > 100 µM | A549 > 100 µM | IGROV-1 > 100 µM
